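Dose response: 5 concentrations. Exposure: 48 h. Format: 96-well plates. Endpoint: linear interpolation; highest concentration if not reached. At the GI50, growth is halved. TGI denotes the concentration required for complete inhibition of growth.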
What was measured:
Assay in all cases: DTP human tumour cell line panel, 48 h
[1] = tested on: SW-620 colon
[2] = tested on: NCI-H522 lung
[3] = tested on: SK-MEL-5 melanoma
[4] = tested on: PC-3 prostate
[5] = tested on: NCI-H226 lung
[6] = tested on: SK-MEL-2 melanoma
[7] = tested on: SN12C renal
[8] = tested on: HL-60(TB) leukemia
[9] = tested on: DU-145 prostate
[10] = tested on: UO-31 renal
[11] = tested on: UACC-257 melanoma
[12] = tested on: HS 578T breast
[13] = tested on: K-562 leukemia
[14] = tested on: MCF7 breast
[15] = tested on: SF-295 CNS
[16] = tested on: ACHN renal
[17] = tested on: HCT-116 colon
[18] = tested on: UACC-62 melanoma
[19] = tested on: MDA-MB-435
[20] = tested on: HOP-62 NSCLC
[21] = tested on: SR leukemia
[22] = tested on: KM12 colon
[23] = tested on: OVCAR-5 ovarian
[24] = tested on: A549 NSCLC
[25] = tested on: MDA-MB-231 breast
[26] = tested on: TK-10 renal
[27] = tested on: OVCAR-4 ovarian
[28] = tested on: 786-0 renal
[29] = tested on: SF-539 CNS
[30] = tested on: OVCAR-3 ovarian
[31] = tested on: SF-268 CNS
[32] = tested on: NCI/ADR-RES ovarian
[33] = tested on: HT29 colon
[34] = tested on: SK-OV-3 ovarian
[35] = tested on: U251 CNS
[36] = tested on: SNB-75 CNS
[37] = tested on: IGROV1 ovarian
[38] = tested on: HCC-2998 colon
[39] = tested on: EKVX NSCLC
[40] = tested on: MALME-3M melanoma
[41] = tested on: A498 renal
[42] = tested on: MOLT-4 leukemia
[43] = tested on: COLO 205 colon
[44] = tested on: LOX IMVI melanoma
[45] = tested on: BT-549 breast
[46] = tested on: M14 melanoma
[47] = tested on: HCT-15 colon
[48] = tested on: SNB-19 CNS
[49] = tested on: RPMI-8226 leukemia
[50] = tested on: NCI-H23 lung
[51] = tested on: CAKI-1 renal
[52] = tested on: OVCAR-8 ovarian
[53] = tested on: NCI-H460 lung
[54] = tested on: SK-MEL-28 melanoma

COc1cc(-n2cc(-c3ccc(Cl)cc3)[nH]c2=O)cc(OC)c1OC
GI50 [1]: > 100 µM
TGI [1]: > 100 µM
GI50 [2]: 19.9 µM
TGI [2]: 54 µM
GI50 [3]: 31.1 µM
TGI [3]: > 100 µM
GI50 [4]: 16.4 µM
TGI [4]: 51.2 µM
GI50 [5]: 33.2 µM
TGI [5]: 83.3 µM
GI50 [6]: 72.6 µM
TGI [6]: > 100 µM
GI50 [7]: 37.7 µM
TGI [7]: > 100 µM
GI50 [8]: > 100 µM
TGI [8]: > 100 µM
GI50 [9]: 57.4 µM
TGI [9]: > 100 µM
GI50 [10]: 22.5 µM
TGI [10]: 64.4 µM
GI50 [11]: 46.8 µM
TGI [11]: > 100 µM
GI50 [12]: 76.6 µM
TGI [12]: > 100 µM
GI50 [13]: > 100 µM
TGI [13]: > 100 µM
GI50 [14]: 35 µM
TGI [14]: > 100 µM
GI50 [15]: 30.9 µM
TGI [15]: > 100 µM
GI50 [16]: 21.6 µM
TGI [16]: 46 µM
GI50 [17]: 35.4 µM
TGI [17]: > 100 µM
GI50 [18]: 23 µM
TGI [18]: 64.1 µM
GI50 [19]: 88.4 µM
TGI [19]: > 100 µM
GI50 [20]: 30.8 µM
TGI [20]: 78.8 µM
GI50 [21]: > 100 µM
TGI [21]: > 100 µM
GI50 [22]: 41.3 µM
TGI [22]: > 100 µM
GI50 [23]: 22.7 µM
TGI [23]: 54.1 µM
GI50 [24]: 34.6 µM
TGI [24]: > 100 µM
GI50 [25]: 23.1 µM
TGI [25]: 55.4 µM
GI50 [26]: 18.5 µM
TGI [26]: 42.8 µM
GI50 [27]: 25.9 µM
TGI [27]: 62.9 µM
GI50 [28]: 15.2 µM
TGI [28]: 35.3 µM
GI50 [29]: 23.8 µM
TGI [29]: 49.2 µM
GI50 [30]: 21 µM
TGI [30]: 50.1 µM
GI50 [31]: 30.4 µM
TGI [31]: 88.6 µM
GI50 [32]: 23.1 µM
TGI [32]: 63.6 µM
GI50 [33]: 43.8 µM
TGI [33]: > 100 µM
GI50 [34]: 35.8 µM
TGI [34]: 93 µM
GI50 [35]: 20.9 µM
TGI [35]: 45.1 µM
GI50 [36]: 26.2 µM
TGI [36]: 50.5 µM
GI50 [37]: 35.5 µM
TGI [37]: > 100 µM
GI50 [38]: 47.4 µM
TGI [38]: > 100 µM
GI50 [39]: 34.1 µM
TGI [39]: > 100 µM
GI50 [40]: 32 µM
TGI [40]: 77.4 µM
GI50 [41]: 19.8 µM
TGI [41]: 44.8 µM
GI50 [42]: > 100 µM
TGI [42]: > 100 µM
GI50 [43]: > 100 µM
TGI [43]: > 100 µM
GI50 [44]: 59.9 µM
TGI [44]: > 100 µM
GI50 [45]: 27.1 µM
TGI [45]: 71.8 µM
GI50 [46]: 94.1 µM
TGI [46]: > 100 µM
GI50 [47]: > 100 µM
TGI [47]: > 100 µM
GI50 [48]: 32.6 µM
TGI [48]: > 100 µM
GI50 [49]: 12.6 µM
TGI [49]: > 100 µM
GI50 [50]: 49.5 µM
TGI [50]: > 100 µM
GI50 [51]: 16.2 µM
TGI [51]: 35.6 µM
GI50 [52]: 26.5 µM
TGI [52]: 68.9 µM
GI50 [53]: 39.6 µM
TGI [53]: > 100 µM
GI50 [54]: > 100 µM
TGI [54]: > 100 µM

— PubChem BioAssay (NCI)
